From article PMC9322451 (Clinical Pharmacology in Drug Development, 2022)
Read-outs that look alike come from different tables or passages of the source.

Tests used:
[1] = Phase 1 part A: PK after single and multiple once-daily oral doses; type: in vivo, human; conditions: for Cmax / half-life / Tmax / AUC / AUC(0-inf) / AUC(0-t): human, plasma, po; for Cmax / half-life / AUC / AUC(0-inf) / AUC(0-t): mean (CV%); for half-life: read-out: t1/2 (converted); for Tmax: median (range), read-out: Tmax
Experimental: The study was conducted sequentially in 2 parts. […] Eligible participants were admitted to the clinical unit for single‐dose evaluation from days −2 to 2 and from days 29 to 31 for steady‐state PK and safety evaluation. Participants self‐administered daily doses after an overnight fast of at least 10 hours on days 4 to 30, with outpatient visits on days 3, 4, 7, 14, 21, 32, 33, and 61 (Figure S1).
For part A, blood samples for PK assessments were collected following administration on days 1 and 30 at 0 (predose), 0.5, 0.75, 1, 1.5, 2, 3, 4, 8, 12, 24, 48, and 72 hours after dosing. In addition, predose PK samples were collected on days 4, 7, 14, and 21. PK parameters following single and multiple once‐daily dosing were evaluated using noncompartmental analysis, including the AUC over a dosing interval (AUCτ), AUC from time 0 to the last time with quantifiable concentration (AUClast), AUC from time 0 to infinite time (AUC∞), maximum plasma concentration (Cmax), minimum plasma concentration, time to maximum plasma concentration (tmax), terminal elimination half‐life (t1/2), apparent total drug clearance following oral administration (CL/F), and predose concentration.
All statistical analyses were performed using SAS version 9.3 or higher (SAS Institute Inc., Cary, North Carolina). Analysis of PK data was performed using WinNonlin Professional Software version 8.0 or higher (Certara, LP, Princeton, New Jersey). […] Categorical data were summarized by race and treatment group in terms of number of participants with data at relevant time points, frequency counts, and percentages. PK concentrations below the limit of quantification (BLQ) at time 0 on days 1 and 30 were considered 0. Postdose BLQ data were considered missing for PK parameter calculation. For mean concentrations and graphic presentation, all BLQ data were imputed as 0.

[2] = test system: CYP2C19; set-up: method as in unpublished data; conditions: ref unpublished data; cited from earlier work
[3] = test system: neutrophil elastase; set-up: method as in PMID 29484635; conditions: cited from earlier work
[4] = 10 mg, Day 30, 10 mg once daily, Japanese
[5] = 10 mg, Day 30, 10 mg once daily, White
[6] = 25 mg, Day 30, 25 mg once daily, Japanese
[7] = 25 mg, Day 30, 25 mg once daily, White
[8] = 40 mg, Day 30, 40 mg once daily, Japanese
[9] = 40 mg, Day 30, 40 mg once daily, White

Structure (SMILES): Cn1c(=O)oc2ccc(-c3ccc(C[C@@H](C#N)NC(=O)[C@@H]4CNCCCO4)cc3)cc21 [Brensocatib]
- Cmax [1, 4]: 80.5 ng/mL
- half-life [1, 4]: 22.5 h
- Tmax [1, 4]: 1.26 h
- AUC [1, 5]: 1180 ng·h/mL
- AUC(0-inf) [1, 5]: 2540 ng·h/mL
- AUC(0-t) [1, 5]: 2100 ng·h/mL
- Cmax [1, 5]: 89.5 ng/mL
- half-life [1, 5]: 28.1 h
- Tmax [1, 5]: 1.02 h
- AUC ([1]; 25 mg, Day 1, 25 mg, Japanese): 2010 ng·h/mL
- AUC(0-inf) ([1]; 25 mg, Day 1, 25 mg, Japanese): 3390 ng·h/mL
- AUC(0-t) ([1]; 25 mg, Day 1, 25 mg, Japanese): 3040 ng·h/mL
- Cmax ([1]; 25 mg, Day 1, 25 mg, Japanese): 209 ng/mL
- half-life ([1]; 25 mg, Day 1, 25 mg, Japanese): 21.7 h
- Tmax ([1]; 25 mg, Day 1, 25 mg, Japanese): 1.5 h
- AUC ([1]; 25 mg, Day 1, 25 mg, White): 1720 ng·h/mL
- AUC(0-inf) ([1]; 25 mg, Day 1, 25 mg, White): 3200 ng·h/mL
- AUC(0-t) ([1]; 25 mg, Day 1, 25 mg, White): 2810 ng·h/mL
- Cmax ([1]; 25 mg, Day 1, 25 mg, White): 161 ng/mL
- half-life ([1]; 25 mg, Day 1, 25 mg, White): 24.5 h
- Tmax ([1]; 25 mg, Day 1, 25 mg, White): 1.35 h
- AUC [1, 6]: 4170 ng·h/mL
- AUC(0-inf) [1, 6]: 7890 ng·h/mL
- AUC(0-t) [1, 6]: 6890 ng·h/mL
- Cmax [1, 6]: 301 ng/mL
- half-life [1, 6]: 23.3 h
- Tmax [1, 6]: 1.75 h
- AUC [1, 7]: 3870 ng·h/mL
- AUC(0-inf) [1, 7]: 8160 ng·h/mL
- AUC(0-t) [1, 7]: 6720 ng·h/mL
- Cmax [1, 7]: 265 ng/mL
- half-life [1, 7]: 28.6 h
- Tmax [1, 7]: 1.02 h
- AUC ([1]; 40 mg, Day 1, 40 mg, Japanese): 2660 ng·h/mL
- AUC(0-inf) ([1]; 40 mg, Day 1, 40 mg, Japanese): 4580 ng·h/mL
- AUC(0-t) ([1]; 40 mg, Day 1, 40 mg, Japanese): 4040 ng·h/mL
- Cmax ([1]; 40 mg, Day 1, 40 mg, Japanese): 245 ng/mL
- half-life ([1]; 40 mg, Day 1, 40 mg, Japanese): 23.2 h
- Tmax ([1]; 40 mg, Day 1, 40 mg, Japanese): 1.5 h
- AUC ([1]; 40 mg, Day 1, 40 mg, White): 3420 ng·h/mL
- AUC(0-inf) ([1]; 40 mg, Day 1, 40 mg, White): 5930 ng·h/mL
- AUC(0-t) ([1]; 40 mg, Day 1, 40 mg, White): 5300 ng·h/mL
- Cmax ([1]; 40 mg, Day 1, 40 mg, White): 328 ng/mL
- half-life ([1]; 40 mg, Day 1, 40 mg, White): 22.1 h
- Tmax ([1]; 40 mg, Day 1, 40 mg, White): 1.27 h
- AUC [1, 8]: 4010 ng·h/mL
- AUC(0-inf) [1, 8]: 7110 ng·h/mL
- AUC(0-t) [1, 8]: 6400 ng·h/mL
- Cmax [1, 8]: 334 ng/mL
- half-life [1, 8]: 21.9 h
- Tmax [1, 8]: 1.03 h
- AUC [1, 9]: 6470 ng·h/mL
- AUC(0-inf) [1, 9]: 12200 ng·h/mL
- AUC(0-t) [1, 9]: 10600 ng·h/mL
- Cmax [1, 9]: 467 ng/mL
- half-life [1, 9]: 23.6 h
- Tmax [1, 9]: 1.49 h
- accumulation in maximum plasma concentration and AUC at steady state ([1]; once-daily dosing): ≈ 2 fold
- Dose‐normalized Cmax lower in Japanese than in White participants ([1]; pooled dose groups): 19.1%
- dose‐normalized AUCs lower in Japanese than in White participants ([1]; pooled dose groups): ≈ 25.6%
- CYP inhibition [2]: no effect
- inhibition of the activity of neutrophil elastase in blood [3]: exposure‐dependent
